# Measured values reported in paper PMC11500415, “Chemical inhibition of stomatal differentiation by perturbation of the master-regulatory bHLH heterodimer via an ACT-Like domain” (Nature Communications, 2024).
# Read-outs that look alike come from different tables or passages of the source.
# Experiments:
# [1] = Stability in aqueous conditions by LC/MS; format: physicochemical
# Method: Next, to directly address the stability of Stomidazolone in the aqueous condition we used for our bioassays, we performed liquid chromatography-mass spectrometry (LC/MS) (Supplementary Fig. 4). Stomidazolone was incubated in the 1/2 MS liquid medium (pH 5.7) at room temperature for 48 hours. […] Additionally, we tested Stomidazolone’s stability in phosphate buffer (pH 7.0).
# Stomidazolone in 1/2 MS liquid media (pH 5.7) or phosphate buffer (pH 7.0) was detected by LC (Agilent 1200, Agilent Technologies, Santa Clara, USA) coupled to a single quadrupole mass spectrometer (Agilent 6130) equipped with an APCI-ES source. For the stability assay of Stomidazolone, the analytical samples were prepared as follows: 100 μL 5 mM Stomidazolone in DMSO was diluted with 900 μL 1/2MS (pH5.7) or 50 mM Phosphate buffer (pH 7.0). The Stomidazolone solutions were incubated at room temperature with rotating. At 0 or 48 hr after incubation, the 10 μL of solution were collected, diluted with water: acetonitrile;= 50:50, and applied to LC/MS. […] The mobile phase consisted of 5 mM ammonium formate: acetonitrile = 80:20 at a flow rate of 0.6 mL/min. in isocratic mode, and detected by mass spectrometry (MS). […] The electrospray ionization mass spectra (ESI-MS) recorded in the mass-to-charge ratio range from m/z 80–1000 was collected. […]
# [2] = molecular target: T1, SCRM_ACTL (Arabidopsis thaliana, UniProt Q9LSE2); assay: BLI direct binding; set-up: species or system A. thaliana
# T1 construct: SCRM-ACTL (405-494); GST (N, cleaved yes); made in house; host or cells: E. coli BL21
# T1 sequence (Q9LSE2 405-494): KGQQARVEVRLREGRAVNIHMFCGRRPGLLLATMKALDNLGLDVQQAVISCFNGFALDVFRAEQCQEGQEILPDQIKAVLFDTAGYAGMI
# Source text: (§1) A. thaliana SCRM (1-494), ΔNSPCH (98-364), MUTE (1-202), ΔNFAMA (190-414), MUTEΔC (1-114), MUTER133A_R134A, MUTEE162A_E163A, MUTER133A_R134A_E162A_E163A, SCRM-ACTL (405-494), MUTE-ACTL (114-202), SPCH-ACTL (285-364), FAMA-ACTL (306-414), MUTE_ACTLR133A_R134A, MUTE_ACTLE162A_E163A, MUTE_ACTLR133A_R134A_E162A_E163A were cloned into pGEX-4T-1 vector with an N-terminal GST tag and a thrombin cleavage sequence. For protein expression, the constructs were transformed into E. coli strain BL21. For each transformant, a single colony was selected and incubated in 10 ml LB liquid media. The overnight-incubated E. coli suspensions were transferred to 1 L LB medium and incubated at 37 °C for around 2 h until the OD600 reached 0.4–0.6. The isopropyl β-D-1-thiogalactopyranoside ([…] of final concentration) was added to the cultures and the strains were incubated at 22 °C for a further 18 h. GST-fused proteins were purified using glutathione agarose resin. The soluble portion of the cell lysate was loaded onto a GST-Sepharose column. Nonspecifically bound proteins were removed by washing the column with 20 mM Tris pH 8.0, 200 mM NaCl. The bound GST-fused protein was eluted with 10 mm glutathione and 20 mM Tris pH 8.0, 200 mM NaCl. The GST-fused proteins were exchanged with phosphate-buffered saline buffer, and then the solution was treated with 50 μg of thrombin for 10–12 h at 16 ^οC. The GST portion of the protein was cleaved during thrombin digestion, and then the whole solution was reloaded onto the glutathione S-transferase column to obtain pure protein. The purified proteins were further purified by gel filtration on a Superdex-200 (GE) column using fast protein liquid chromatography and phosphate buffer (pH 7.2) as the eluent. The purity of the protein was checked by SDS-PAGE. For detailed lists of oligo DNA and plasmid information, see Supplementary Tables 5, 6, respectively.
# (§2) The binding affinities of SCRM to MUTE / MUTER133A_R134A / MUTEE162A_E163A / MUTER133A_R134A_E162A_E163A in presence and absence of Stomidazolone (3) and its analogues (AYSJ1059 (5) and AYSJ1061 (6)), and Stomidazolone / AYSJ1059 / AYSJ1061 interactions with GST-tagged SCRM, MUTE, SPCH, FAMA, MUTE ΔACTL, MUTE_ACTL, SCRM_ACTL, SPCH_ACTL and FAMA_ACTL, MUTER133A_134A, MUTEE162A_E163A, MUTER133A_R134A_E162A_E163A were measured using the Octet Red96 system (ForteBio, Pall Life Sciences) following the manufacturer’s protocols. The optical probes coated with anti-GST were first loaded with 500 nM GST tagged proteins before kinetic binding analyses. The experiment was performed in 96-well plates maintained at 30 °C. Each well was loaded with 200 μL reaction volume for the experiment. The binding buffer used in these experiments contained 1× PBS supplemented with 2% DMSO, 0.02% Tween20. The concentrations of the Stomidazolone as the analyte in the binding buffer were 100, 50, 25, 12.5, 6.25, 3.12, and 1.56 μM. There was no binding of the analytes to the unloaded probes as shown by the control wells. Binding kinetics to all seven concentrations of the analytes were measured simultaneously using default parameters on the instrument. The data were analyzed using the Octet data analysis software. The association and dissociation curves were fit with the 1:1 homogeneous ligand model. The kobs (observed rate constant) values were used to calculate Kd, with steady-state analysis of the direct binding. See Supplementary Table 3 for details.
# [3] = molecular target: T2, FAMA_ACTL (Arabidopsis thaliana, UniProt Q56YJ8); assay: BLI direct binding; set-up: species or system A. thaliana
# T2 construct: FAMA-ACTL (306-414); GST (N, cleaved yes); made in house; host or cells: E. coli BL21
# Source text: as §1, §2
# [4] = BLI steady state, read-out: KD (SS)
# T2 sequence (Q56YJ8 306-414): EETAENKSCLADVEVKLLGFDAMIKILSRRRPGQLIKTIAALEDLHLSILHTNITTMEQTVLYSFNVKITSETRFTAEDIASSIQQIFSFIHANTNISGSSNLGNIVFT
smiles,measurement,setting,value
O=C1C(c2ccccc2)=NC(NS(=O)(=O)c2ccccc2)(c2ccccc2)N1S(=O)(=O)c1ccccc1 (stereo not drawn) [Stomidazolone],stability in 1/2 MS liquid medium (LC/MS),"[1]; pH 5.7, room temperature, 48 hours",no lzx103 peak (2.13 min) was detected
same,stability in phosphate buffer (LC/MS),"[1]; pH 7.0, room temperature, 48 h",did not detect the degradation
same,Kd,[2]; [4],76 ± 6.8 µM
same,Kd,"[2]; BLI, read-out: KD",78.2 ± 1.2 µM
same,Kd,[3]; [4],105 ± 13.8 µM
same,Kd,"[3]; BLI, read-out: KD",95.2 ± 3.5 µM
